System: Plasmodium falciparum 3D7
Experiment: P. falciparum 3D7 asexual blood stage assay, Assay Procedure Version 1 (SYBR green readout)
Assay type: cell-based
Details: 3D7, Erythrocyte, Version 1 of the assay procedure (no asterisk), 72 h incubation in infected erythrocytes, 10,000 nM to 0.51 nM
Procedure: Asexual Blood Stage Assay
The assay used to measure the effect of test compounds on a bloodstream stage of Plasmodium falciparum 3D7 strain employs SYBR green as the readout. This is a dye that binds to double stranded deoxyribonucleic acid (DNA) with a resulting increase in fluorescence, allowing detection of P. falciparum DNA in infected erythrocytes, and thereby providing a measure of parasite growth and propagation.
P. falciparum Culture Maintenance
Erythrocytes (A+blood) were prepared for both parasite culture and assay by washing 4 times with incomplete media (15.9 g RPMI 1640 (25 mM HEPES, L-glutamine), 1 g NaHCO3, 2 g glucose, 400 μL gentacin (500 mg/mL), 2 mL hypoxanthine solution (13.6 g/L in 0.1M NaOH pH 7.3) in 1 litre of media). The cells were centrifuged at 1800 g for 5 minutes, before decanting the supernatant and re-suspending in fresh incomplete media. On the final wash, the cells were re-suspended in complete media (incomplete media with 5 g/L AlbumaxII), and centrifuged at 1800 g for 3 minutes. This cell sediment was treated as 100% haematocrit.
P. falciparum 3D7 was cultured in erythrocytes at 5% haematocrit in complete media at 37° C. (1% O2, 3% CO2, balance N2). Cultures were split on a weekly basis to achieve a 1% parasitaemia in erythrocites at 5% haematocrit in fresh media. Culture media is replaced by fresh media every other day (2 times during the week).
Assay Procedure—Version 1
On day 1, test compounds were added to assay plates using Echo dispensing technology (3 fold dilution and 10 points titration). 50 nL of each compound dilution was added to 50 μL of culture (5% haematocrit, 0.5% parasitaemia) and incubated for 72 h at 37° C. (1% O2, 3% CO2, balance N2). Final concentrations of test compounds ranged from 10,000 nM to 0.51 nM, in […].
On day 4, 10 μL SYBR green (Invitrogen S7563 supplied as 10,000×concentrate in DMSO) pre-diluted to 3× concentrate with Lysis buffer (20 mM Tris pH 7.9, 5% EDTA, 0.16% w/v, 1.6% TX100 v/v) was added to the cultures and incubated in the dark, overnight, at room temperature.
On day 5, fluorescent signal was measured using a BioTek plate reader (excitation 485 nm, emission 528 nm). All data were processed using IDBS ActivityBase. Raw data were converted into percent inhibition through linear regression by setting the high inhibition control as 100% and the no inhibition control as 0%. Quality control criteria for passing plates were as follows: Z′>0.5, S:B>3, % CV(no inhibition control)<15. The formula used to calculate Z′ is
All EC50 curve fitting was undertaken using the following 4 parametric equation:
[formula] where A=% inhibition at bottom; B=% inhibition at top; C=EC50; D=slope; x=inhibitor concentration; and y=% inhibition. […] Assay Procedure—Version 2

Row | SMILES | IC50 [nM]
1 | C[C@@]1(c2cccc(Nc3ccccc3)c2Cl)CC(=O)N(CC2(O)CC2)C(=N)N1 [Example 1, (6S)-6-(3-Anilino-2-chloro-phenyl)-3-[(1-hydroxy-cyclopropyl)methyl]-2-imino-6-methylhexahydropyrimidin-4-one] | 400
2 | Cc1ncccc1Nc1cccc([C@]2(C)CC(=O)N(C3CCOCC3)C(=N)N2)c1Cl [Example 28, (6S)-6-{2-Chloro-3-[(2-methyl-pyridin-3-yl)amino]phenyl}-2-imino-6-methyl-3-(tetrahydro-pyran-4-yl)hexahydropyrimidin-4-one] | 2960
3 | Cc1cccc(Nc2cccc([C@]3(C)CC(=O)N(C4CCOCC4)C(=N)N3)c2Cl)c1 [Example 8, (6S)-6-[2-Chloro-3-(3-methyl-anilino)phenyl]-2-imino-6-methyl-3-(tetrahydropyran-4-yl)hexahydropyrimidin-4-one] | 330
4 | C[C@@]1(c2cccc(Nc3cccnc3)c2Cl)CC(=O)N(C2CCOCC2)C(=N)N1 [Example 20, (6S)-6-[2-Chloro-3-(pyridin-3-ylamino)phenyl]-2-imino-6-methyl-3-(tetrahydropyran-4-yl)hexahydropyrimidin-4-one] | 2310
5 | C[C@@]1(c2cccc(Nc3cccnc3C(F)(F)F)c2Cl)CC(=O)N(C2CCOCC2)C(=N)N1 [Example 26, (6S)-6-(2-Chloro-3-{[2-(trifluoromethyl)pyridin-3-yl]amino}phenyl)-2-imino-6-methyl-3-(tetrahydropyran-4-yl)hexahydropyrimidin-4-one] | 331
6 | C[C@@]1(c2cccc(Nc3ccc(C#N)c(Cl)c3)c2Cl)CC(=O)N(C2CCOCC2)C(=N)N1 [Example 24, 2-Chloro-4-{2-chloro-3-[(4S)-2-imino-4-methyl-6-oxo-1-(tetrahydropyran-4-yl)-hexahydropyrimidin-4-yl]-anilino}benzonitrile] | 1670
7 | C[C@@]1(c2cccc(Nc3ccc(C(F)(F)F)nc3)c2Cl)CC(=O)N(C2CCOCC2)C(=N)N1 [Example 31, (6S)-6-(2-Chloro-3-{[6-(trifluoromethyl)pyridin-3-yl]amino}phenyl)-2-imino-6-methyl-3-(tetrahydropyran-4-yl)hexahydropyrimidin-4-one] | 430
8 | CC1(CN2C(=N)N[C@](C)(c3cccc(Nc4ccc(F)cc4)c3Cl)CC2=O)COC1 [Example 175, (6S)-6-[2-Chloro-3-(4-fluoro-anilino)phenyl]-2-imino-6-methyl-3-[(3-methyloxetan-3-yl)methyl]hexahydropyrimidin-4-one] | 2820
9 | C[C@@]1(c2cccc(Nc3cccc(C#N)c3)c2Cl)CC(=O)N(C2CCOCC2)C(=N)N1 [Example 9, 3-{2-Chloro-3-[(4S)-2-imino-4-methyl-6-oxo-1-(tetrahydro-pyran-4-yl)hexahydropyrimidin-4-yl]anilino}benzonitrile] | 333
10 | C[C@@]1(c2cccc(Nc3ccc(C(F)(F)F)cc3)c2Cl)CC(=O)N(CC2CCOCC2)C(=N)N1 [Example 173, (6S)-6-{2-Chloro-3-[4-(trifluoromethyl)anilino]-phenyl}-2-imino-6-methyl-3-(tetrahydropyran-4-ylmethyl)-hexahydropyrimidin-4-one] | 1540
11 | C[C@@]1(c2cccc(Nc3cc(Cl)cc(C#N)c3)c2Cl)CC(=O)N(C2CCOCC2)C(=N)N1 [Example 34, 3-Chloro-5-{2-chloro-3-[(4S)-2-imino-4-methyl-6-oxo-1-(tetrahydropyran-4-yl)-hexahydropyrimidin-4-yl]-anilino}benzonitrile] | 790
12 | C[C@@]1(c2cccc(Nc3ccc(F)cc3)c2Cl)CC(=O)N([C@H]2C[C@@H]3CC[C@H]2O3)C(=N)N1 (racemic) [Example 188, (6S)-6-[2-Chloro-3-(4-fluoro-anilino)phenyl]-2-imino-6-methyl-3-[(1RS,2SR,4SR)-7-oxabicyclo[2.2.1]heptan-3-yl]-hexahydropyrimidin-4-one] | 3460
13 | C[C@@]1(c2cccc(Nc3cn4ccccc4n3)c2Cl)CC(=O)N(C2CCOCC2)C(=N)N1 [Example 35, (6S)-6-[2-Chloro-3-(imidazo-[1,2-a]pyridin-2-ylamino)-phenyl]-2-imino-6-methyl-3-(tetrahydropyran-4-yl)-hexahydropyrimidin-4-one] | 2380
14 | C[C@@]1(c2cccc(Nc3cc(C(F)(F)F)cnc3Cl)c2Cl)CC(=O)N(C2CCOCC2)C(=N)N1 [Example 32, (6S)-6-(2-Chloro-3-{[2-chloro-5-(trifluoromethyl)pyridin-3-yl]amino}phenyl)-2-imino-6-methyl-3-(tetrahydropyran-4-yl)hexahydropyrimidin-4-one] | 851
15 | C[C@@]1(c2cccc(Nc3ccccc3)c2Cl)CC(=O)N([C@H]2C[C@@](C)(O)C2)C(=N)N1 [Example 13, (6S)-6-(3-Anilino-2-chloro-phenyl)-3-(3-hydroxy-3-methyl-cyclobutyl)-2-imino-6-methyl-hexahydropyrimidin-4-one] | 230
16 | C[C@@]1(c2cccc(Nc3ccc(C#N)cc3)c2Cl)CC(=O)N(C2CCOCC2)C(=N)N1 [Example 18, 4-{2-Chloro-3-[(4S)-2-imino-4-methyl-6-oxo-1-(tetrahydro-pyran-4-yl)hexahydropyrimidin-4-yl]anilino}benzonitrile] | 534
17 | C[C@@]1(c2cccc(Nc3cnc4ccccc4c3)c2Cl)CC(=O)N(C2CCOCC2)C(=N)N1 [Example 30, (6S)-6-[2-Chloro-3-(quinolin-3-ylamino)phenyl]-2-imino-6-methyl-3-(tetrahydropyran-4-yl)hexahydropyrimidin-4-one] | 640
18 | C[C@@]1(c2cccc(Nc3ccccc3Cl)c2Cl)CC(=O)N(C2CCOCC2)C(=N)N1 [Example 15, (6S)-6-[2-Chloro-3-(2-chloro-anilino)phenyl]-2-imino-6-methyl-3-(tetrahydropyran-4-yl)hexahydropyrimidin-4-one] | 1530
19 | COc1ccc(Nc2cccc([C@]3(C)CC(=O)N(C4CCOCC4)C(=N)N3)c2Cl)cc1 [Example 159, (6S)-6-[2-Chloro-3-(4-methoxy-anilino)phenyl]-2-imino-6-methyl-3-(tetrahydropyran-4-yl)hexahydropyrimidin-4-one] | 2280
20 | Cc1ccc(Nc2cccc([C@]3(C)CC(=O)N(C4CCOCC4)C(=N)N3)c2Cl)cc1 [Example 160, (6S)-6-[2-Chloro-3-(4-methyl-anilino)phenyl]-2-imino-6-methyl-3-(tetrahydropyran-4-yl)hexahydropyrimidin-4-one] | 1680
21 | C[C@@]1(c2cccc(Nc3ccnc(F)c3)c2Cl)CC(=O)N(C2CCOCC2)C(=N)N1 [Example 29, (6S)-6-{2-Chloro-3-[(2-fluoro-pyridin-4-yl)amino]phenyl}-2-imino-6-methyl-3-(tetrahydro-pyran-4-yl)hexahydropyrimidin-4-one] | 539
22 | CC1(O)CC(N2C(=N)N[C@](C)(c3cccc(Nc4ccc(F)cc4)c3Cl)CC2=O)C1 (stereo partly drawn) [Example 172, (6S)-6-[2-Chloro-3-(4-fluoro-anilino)phenyl]-3-(3-hydroxy-3-methylcyclobutyl)-2-imino-6-methylhexahydropyrimidin-4-one] | 228
23 | C[C@@]1(c2cccc(Nc3cccc(S(C)(=O)=O)c3)c2Cl)CC(=O)N(C2CCOCC2)C(=N)N1 [Example 41, (6S)-6-[2-Chloro-3-(3-methyl-sulfonylanilino)phenyl]-2-imino-6-methyl-3-(tetrahydro-pyran-4-yl)hexahydropyrimidin-4-one] | 1950
